Results taken from patent publication US20260035365A1, “1H-PYRROLO[3,2-B]PYRIDINE DERIVATIVES AS IRREVERSIBLE INHIBITORS OF MUTANT EGFR FOR THE TREATMENT OF CANCER” (Bayer Aktiengesellschaft, priority 2022, published 2026).

Columns and labels:
[1] = target: mutEGFR (D770_N771insSVD) (Homo sapiens, UniProt P00533, INS767SVD); assay: Exon20-mutant-EGFR (D770_N771insSVD) TR-FRET kinase assay; format: biochemical; conditions: 2 mM ATP, 15 min preincubation
Method in brief: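 GST-fused human EGFR fragment R669-A1210 carrying the SVD insertion, Sf9-expressed, typically 15 pg/μl, was preincubated with compound for 15 min at 22° C in pH 7.0 Hepes/MgCl2 buffer. Phosphorylation was read by HTRF (665/620 nm ratio), normalised to no-inhibitor and no-enzyme controls.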

[2] = target: mutEGFR (D770_N771insNPG, T790); assay: mutEGFR (D770_N771insNPG, T790) kinase assay; format: biochemical, human
Chain of mutEGFR (D770_N771insNPG, T790) (P00533 with tags, fused parts or gaps INS770NPG limits assumed): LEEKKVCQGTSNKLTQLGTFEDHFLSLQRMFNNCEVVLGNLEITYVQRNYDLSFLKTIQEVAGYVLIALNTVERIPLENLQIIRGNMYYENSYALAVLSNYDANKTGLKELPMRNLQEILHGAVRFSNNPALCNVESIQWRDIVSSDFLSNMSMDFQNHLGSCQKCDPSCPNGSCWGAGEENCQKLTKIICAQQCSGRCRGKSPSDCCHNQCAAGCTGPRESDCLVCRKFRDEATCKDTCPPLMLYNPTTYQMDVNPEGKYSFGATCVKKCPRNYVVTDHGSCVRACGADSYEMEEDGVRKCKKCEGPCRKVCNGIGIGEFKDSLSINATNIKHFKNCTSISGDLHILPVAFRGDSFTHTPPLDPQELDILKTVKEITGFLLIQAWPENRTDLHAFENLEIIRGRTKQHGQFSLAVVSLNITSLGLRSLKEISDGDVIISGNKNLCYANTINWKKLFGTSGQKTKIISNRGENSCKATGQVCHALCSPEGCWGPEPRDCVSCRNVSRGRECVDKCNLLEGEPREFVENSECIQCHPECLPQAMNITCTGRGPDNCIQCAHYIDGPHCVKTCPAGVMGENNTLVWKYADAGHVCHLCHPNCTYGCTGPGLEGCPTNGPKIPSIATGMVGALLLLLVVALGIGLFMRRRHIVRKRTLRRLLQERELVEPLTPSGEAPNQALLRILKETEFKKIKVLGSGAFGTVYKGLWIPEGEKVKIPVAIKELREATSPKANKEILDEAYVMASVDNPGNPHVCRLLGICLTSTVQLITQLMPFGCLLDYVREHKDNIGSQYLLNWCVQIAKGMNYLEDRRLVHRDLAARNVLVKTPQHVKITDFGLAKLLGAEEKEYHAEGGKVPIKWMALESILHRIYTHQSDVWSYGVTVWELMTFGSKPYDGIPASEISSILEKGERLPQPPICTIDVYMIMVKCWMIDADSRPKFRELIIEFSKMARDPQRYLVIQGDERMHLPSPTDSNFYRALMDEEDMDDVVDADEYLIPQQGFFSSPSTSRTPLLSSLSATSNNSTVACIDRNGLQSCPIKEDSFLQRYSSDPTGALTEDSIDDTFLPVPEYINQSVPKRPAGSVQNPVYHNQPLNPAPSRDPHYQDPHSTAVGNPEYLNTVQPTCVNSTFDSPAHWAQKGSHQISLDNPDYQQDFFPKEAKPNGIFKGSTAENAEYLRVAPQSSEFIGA

BA/F3 (insSVD) cells = assay: Ba/F3 cell survival assay (Cell Titer-Glo), EGFR-insSVD; format: cell-based; conditions: without IL-3, with EGF
Method in brief: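 Ba/F3 cells stably expressing EGFR-insSVD or insSVD T790M via retrovirus (puromycin-selected), switched from IL-3 to 10 ng/mL EGF for 2 days, then plated at 4000 cells/well. Compound added by 100 nL pin transfer; 48 h at 37° C. Viability by CellTiter-Glo luminescence.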

Chain of mutEGFR (D770_N771insSVD) (P00533 with tags, fused parts or gaps INS767SVD limits assumed): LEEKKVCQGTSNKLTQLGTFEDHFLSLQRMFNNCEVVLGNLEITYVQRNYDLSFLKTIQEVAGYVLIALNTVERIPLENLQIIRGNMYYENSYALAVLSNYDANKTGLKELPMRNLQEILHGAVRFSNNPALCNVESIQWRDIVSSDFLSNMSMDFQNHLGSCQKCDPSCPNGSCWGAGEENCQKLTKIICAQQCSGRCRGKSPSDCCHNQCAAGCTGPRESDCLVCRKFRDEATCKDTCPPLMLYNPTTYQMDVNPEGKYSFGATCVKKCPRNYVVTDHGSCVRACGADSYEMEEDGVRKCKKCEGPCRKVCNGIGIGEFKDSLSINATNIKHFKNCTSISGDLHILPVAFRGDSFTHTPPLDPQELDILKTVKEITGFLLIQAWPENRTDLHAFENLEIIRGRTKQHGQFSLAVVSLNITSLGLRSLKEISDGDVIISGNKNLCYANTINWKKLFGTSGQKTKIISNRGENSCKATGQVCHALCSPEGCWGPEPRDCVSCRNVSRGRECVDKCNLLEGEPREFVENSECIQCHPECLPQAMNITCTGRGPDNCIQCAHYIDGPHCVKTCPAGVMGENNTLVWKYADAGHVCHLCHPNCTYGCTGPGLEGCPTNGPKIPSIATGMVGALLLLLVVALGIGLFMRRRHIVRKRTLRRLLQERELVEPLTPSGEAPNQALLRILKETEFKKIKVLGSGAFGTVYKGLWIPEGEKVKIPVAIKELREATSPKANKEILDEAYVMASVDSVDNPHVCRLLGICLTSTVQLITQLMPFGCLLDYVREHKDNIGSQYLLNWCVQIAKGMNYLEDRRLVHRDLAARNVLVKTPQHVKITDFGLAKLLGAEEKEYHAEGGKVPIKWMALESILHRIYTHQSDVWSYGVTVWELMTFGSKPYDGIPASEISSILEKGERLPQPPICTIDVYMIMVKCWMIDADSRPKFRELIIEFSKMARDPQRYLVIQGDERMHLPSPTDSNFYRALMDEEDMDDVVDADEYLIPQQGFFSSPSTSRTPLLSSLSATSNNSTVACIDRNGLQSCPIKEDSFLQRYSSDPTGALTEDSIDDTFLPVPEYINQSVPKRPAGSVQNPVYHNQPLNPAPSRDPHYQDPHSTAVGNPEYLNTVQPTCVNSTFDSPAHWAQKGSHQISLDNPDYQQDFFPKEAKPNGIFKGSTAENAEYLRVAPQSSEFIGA

SMILES | IC50 [1] [nM] | IC50 [2] [nM] | IC50 (BA/F3 (insSVD) cells; Mus musculus, BaF3, 48 h) [nM] | IC50 (BA/F3 (insSVD) cells; 48 h) [nM]
C=CS(=O)(=O)N1CCC[C@H]1COc1cnccc1-c1[nH]c2cccnc2c1-c1ccc(F)c(OC(F)F)c1 [Example 105, 3-[3-(difluoromethoxy)-4-fluorophenyl]-2-(3-{[(2S)-1-(ethenesulfonyl)pyrrolidin-2-yl]methoxy}pyridin-4-yl)-1H-pyrrolo[3,2-b]pyridine] | 0.207 | 0.537 | 31.1 | 
C=CS(=O)(=O)N1CC[C@@]1(C)COc1cnccc1-c1[nH]c2cccnc2c1-c1ccccc1 [Example 146, 2-(3-{[(2S)-1-(ethenesulfonyl)-2-methylazetidin-2-yl]methoxy}pyridin-4-yl)-3-phenyl-1H-pyrrolo[3,2-b]pyridine] | 32.7 | 265 | 1240 | 
C=CC(=O)N1C=C(F)C[C@H]1COc1cnccc1-c1[nH]c2cccnc2c1-c1ccccc1 [Example 113, 1-[(2S)-4-fluoro-2-({[4-(3-phenyl-1H-pyrrolo[3,2-b]pyridin-2-yl)pyridin-3-yl]oxy}methyl)-2,3-dihydro-1H-pyrrol-1-yl]prop-2-en-1-one] | 0.114 | 0.724 | 9.99 | 
C=CS(=O)(=O)N(C)CCOc1cnccc1-c1[nH]c2cccnc2c1-c1cc(F)cc(F)c1 [Example 68, N-[2-({4-[3-(3,5-difluorophenyl)-1H-pyrrolo[3,2-b]pyridin-2-yl]pyridin-3-yl}oxy)ethyl]-N-methylethenesulfonamide] | 3.64 | 8.76 | 296 | 
C=C(F)C(=O)N1CCC[C@H]1COc1cnccc1-c1[nH]c2cccnc2c1-c1ccccc1 [Example 91, 2-fluoro-1-[(2S)-2-({[4-(3-phenyl-1H-pyrrolo[3,2-b]pyridin-2-yl)pyridin-3-yl]oxy}methyl)pyrrolidin-1-yl]prop-2-en-1-one] | 77.3 | 769 | 1470 | 
C=CS(=O)(=O)N(C)CCOc1cnccc1-c1[nH]c2cccnc2c1-c1cc(C)ccc1F [Example 64, N-[2-({4-[3-(2-fluoro-5-methylphenyl)-1H-pyrrolo[3,2-b]pyridin-2-yl]pyridin-3-yl}oxy)ethyl]-N-methylethenesulfonamide] | 1.47 | 2.21 | 92.9 | 
C=CC(=O)N1CCC[C@H]1COc1cnccc1-c1[nH]c2cccnc2c1-c1cccc(CC)c1 [Example 78, 1-{(2S)-2-[({4-[3-(3-ethylphenyl)-1H-pyrrolo[3,2-b]pyridin-2-yl]pyridin-3-yl}oxy)methyl]pyrrolidin-1-yl}prop-2-en-1-one] | 1.04 | 2.92 | 80.2 | 
C=CS(=O)(=O)N1CCC(Oc2cnccc2-c2[nH]c3cccnc3c2-c2ccccc2)C1 (racemic) [Example 118, 2-(3-{[(3RS)-1-(ethenesulfonyl)pyrrolidin-3-yl]oxy}pyridin-4-yl)-3-phenyl-1H-pyrrolo[3,2-b]pyridine] | 16.8 | 79.9 | 723 | 
CN(C)C/C=C/C(=O)N1CCOCC1COc1cnccc1-c1[nH]c2cccnc2c1-c1cc(Cl)ccc1F (stereo not drawn) [Example 152, (2E)-1-{3-[({4-[3-(5-chloro-2-fluorophenyl)-1H-pyrrolo[3,2-b]pyridin-2-yl]pyridin-3-yl}oxy)methyl]morpholin-4-yl}-4-(dimethylamino)but-2-en-1-one] | 164 | 353 | 1880 | 
C=CC(=O)N1C[C@@H](N(C)CCN(C)C)C[C@H]1COc1cnccc1-c1[nH]c2cccnc2c1-c1ccccc1 (single isomer, unassigned) [Example 131] | 1.17 | 3.58 |  | 54.6
C=CC(=O)N1CC[C@@H]1COc1cnccc1-c1[nH]c2cccnc2c1-c1ccccc1 (single isomer, unassigned) [Example 140] | 0.3 | 1.33 | 9.73 | 
C=CC(=O)N1CCC(Oc2cnccc2-c2[nH]c3cccnc3c2-c2cc(C)ccc2F)C1 (racemic) [Example 124, 1-[(3RS)-3-({4-[3-(2-fluoro-5-methylphenyl)-1H-pyrrolo[3,2-b]pyridin-2-yl]pyridin-3-yl}oxy)pyrrolidin-1-yl]prop-2-en-1-one] | 26.2 | 121 | 904 | 
C=CC(=O)N1CCOCC1COc1cnccc1-c1[nH]c2cccnc2c1-c1ccccc1 (stereo not drawn) [Example 149, 1-[3-({[4-(3-phenyl-1H-pyrrolo[3,2-b]pyridin-2-yl)pyridin-3-yl]oxy}methyl)morpholin-4-yl]prop-2-en-1-one] | 775 | 17700 | 1290 | 
C=CS(=O)(=O)N1CC[C@H]1COc1cnccc1-c1[nH]c2cccnc2c1-c1cccc(C(F)(F)F)c1 (single isomer, unassigned) [Example 144] | 5.12 | 19 | 1520 | 
C=CC(=O)N(C)CCOc1cnccc1-c1[nH]c2cccnc2c1-c1ccccc1CC [Example 53, N-[2-({4-[3-(2-ethylphenyl)-1H-pyrrolo[3,2-b]pyridin-2-yl]pyridin-3-yl}oxy)ethyl]-N-methylprop-2-enamide] | 112 | 744 | 3270 | 
C=CS(=O)(=O)N(C)CCOc1cnccc1-c1[nH]c2cccnc2c1-c1cccc(C(F)(F)F)c1 [Example 66, N-methyl-N-{2-[(4-{3-[3-(trifluoromethyl)phenyl]-1H-pyrrolo[3,2-b]pyridin-2-yl}pyridin-3-yl)oxy]ethyl}ethenesulfonamide] | 2.61 | 6.66 | 421 | 
CN(C)C/C=C/C(=O)N1CCC[C@H]1COc1cnccc1-c1[nH]c2cccnc2c1-c1ccc(F)c(OC(F)F)c1 [Example 104, (2E)-1-[(2S)-2-{[(4-{3-[3-(difluoromethoxy)-4-fluorophenyl]-1H-pyrrolo[3,2-b]pyridin-2-yl}pyridin-3-yl)oxy]methyl}pyrrolidin-1-yl]-4-(dimethylamino)but-2-en-1-one] | 36.9 | 149 | 1380 | 
Cn1ccc(C#CC(=O)N2CCC[C@H]2COc2cnccc2-c2[nH]c3cccnc3c2-c2ccccc2)n1 [Example 95, 3-(1-methyl-1H-pyrazol-3-yl)-1-[(2S)-2-({[4-(3-phenyl-1H-pyrrolo[3,2-b]pyridin-2-yl)pyridin-3-yl]oxy}methyl)pyrrolidin-1-yl]prop-2-yn-1-one] | 71.2 | 246 | 682 | 
C=CC(=O)N(C)CCOc1cnccc1-c1[nH]c2cccnc2c1-c1cc(C)ccc1F [Example 47, N-[2-({4-[3-(2-fluoro-5-methylphenyl)-1H-pyrrolo[3,2-b]pyridin-2-yl]pyridin-3-yl}oxy)ethyl]-N-methylprop-2-enamide] | 32.8 | 19.6 | 493 | 
C=CC(=O)N1CCC(Oc2cnccc2-c2[nH]c3cccnc3c2-c2cccc(C(F)(F)F)c2)C1 (racemic) [Example 122, 1-{(3RS)-3-[(4-{3-[3-(trifluoromethyl)phenyl]-1H-pyrrolo[3,2-b]pyridin-2-yl}pyridin-3-yl)oxy]pyrrolidin-1-yl}prop-2-en-1-one] | 123 | 775 | 2590 | 
C=CC(=O)N1CC(F)(F)C[C@H]1COc1cnccc1-c1[nH]c2cccnc2c1-c1ccccc1 [Example 112, 1-[(2S)-4,4-difluoro-2-({[4-(3-phenyl-1H-pyrrolo[3,2-b]pyridin-2-yl)pyridin-3-yl]oxy}methyl)pyrrolidin-1-yl]prop-2-en-1-one] | 0.215 | 0.979 | 17.5 | 
C=CC(=O)N(C)CCOc1cnccc1-c1[nH]c2cccnc2c1-c1cccc(OC)c1 [Example 54, N-[2-({4-[3-(3-methoxyphenyl)-1H-pyrrolo[3,2-b]pyridin-2-yl]pyridin-3-yl}oxy)ethyl]-N-methylprop-2-enamide] | 118 | 240 | 3960 | 
C#CC(=O)N1CC[C@@H](Oc2cnccc2-c2[nH]c3cccnc3c2-c2cc(Cl)ccc2F)C1 [Example 128, 1-[(3R)-3-({4-[3-(5-chloro-2-fluorophenyl)-1H-pyrrolo[3,2-b]pyridin-2-yl]pyridin-3-yl}oxy)pyrrolidin-1-yl]prop-2-yn-1-one] | 63 | 208 | 765 | 
C=CS(=O)(=O)N1CCC[C@H]1COc1cnccc1-c1[nH]c2cccnc2c1-c1cc(C(F)(F)F)ccc1F [Example 101, 2-(3-{[(2S)-1-(ethenesulfonyl)pyrrolidin-2-yl]methoxy}pyridin-4-yl)-3-[2-fluoro-5-(trifluoromethyl)phenyl]-1H-pyrrolo[3,2-b]pyridine] | 52.2 | 89.8 | 957 | 
C#CC(=O)N1CCC(Oc2cnccc2-c2[nH]c3cccnc3c2-c2cccc(C(F)(F)F)c2)C1 (racemic) [Example 123, 1-{(3RS)-3-[(4-{3-[3-(trifluoromethyl)phenyl]-1H-pyrrolo[3,2-b]pyridin-2-yl}pyridin-3-yl)oxy]pyrrolidin-1-yl}prop-2-yn-1-one] | 173 | 701 | 832 | 
C=CC(=O)N(C)CCOc1cnccc1-c1[nH]c2cccnc2c1-c1cc(Cl)ccc1Cl [Example 57, N-[2-({4-[3-(2,5-dichlorophenyl)-1H-pyrrolo[3,2-b]pyridin-2-yl]pyridin-3-yl}oxy)ethyl]-N-methylprop-2-enamide] | 156 | 450 | 4590 | 
